The subject of one assay is Type IV PDE. Nature of the assay: Type IV PDE inhibitory activity. It is filed as biochemical. The conditions noted are these: Type IV PDE partially purified from rat neutrophils; 3H-cAMP substrate, 30° C., 30 minutes. The method, then: Type I, III, IV, and V PDE isozymes were prepared to study the PDE inhibitory activities of and selectivities with the compound of the invention [Trends Pharmacol Sci., 12, 19-27 (1992)]. Type I PDE was purchased from Sigma Corp. Type III, IV, and V PDE isozymes were partially purified from platelets (Type III and V) or neutrophils (Type IV) collected from rats. Each enzyme source was homogenized in a buffer (pH 6.5) containing 20 mM bisTris, 2 mM EDTA (i.e., ethylenediamine tetraacetate), 0.1 mM PMSF (i.e., phenylmethylsulfonyl fluoride), 5 mM 2-mercaptoethanol, 0.001 mM pepstatin and 0.01 mM leupeptin and was centrifuged at 30000×G for 30 minutes to obtain a supernatant, which was applied to an ion exchange column (Q-sepharose First Flow, Pharmacia Corp.) and was eluted with 0 to 1M sodium acetate. Partially purified isozymes were identified by observing the effects by conventional inhibitors.
Each PDE isozyme and the test compound dissolved in DMSO (i.e., dimethyl sulfoxide) were added to 50 mM Tris-HCl buffer containing 5 mM magnesium chloride. ^3 H-cAMP (for type III and IV PDE) or ^3 H-cGMP (for type I and V PDE) were added as substrates and were reacted at 30° C. for 30 minutes. The reaction was terminated by placing the test tube in boiling water of 100° C. for 5 minutes. The nucleotides formed by PDE were broken down by 5'-nucleotidase to ^3 H-adenosine or 3H-guanosine. The unreacted substrate and reaction product were separated through an ion-exchange column (i.e., QAE sephadex, Pharmacia Corp.) The eluted ^3 H-nucleoside was measured for its radioactivity by a liquid scintillation counter. The inhibitory activities of the compound of the present invention are shown by the IC50 value (M). Further, the inhibitory activities of the test samples against Type I, III, and V are 1/10 or less than that against type IV.

The test system of assay [1] is antigen-induced bronchospasms. Nature of the assay: Inhibitory effect on Antigen-Induced Bronchospasm (Anti-Asthmatic action). It is filed as in vivo. The conditions noted are these: Cavia porcellus; Hartley male guinea pig sensitized with Ovalbumin; intravenous, 10 minutes before 0.2 mg/kg OA i.v.; Konzett-Roessler method; read-out: Action for suppressing antigen-induced bronchospasms ED50. The method, then:
Inhibitory effect on Antigen-Induced Bronchospasm (Anti-Asthmatic action)
A Hartley male guinea pig was sensitized by intramuscular administration of 35 mg Ovalbumin (OA) on first day and fourth day. A tracheal canula was introduced in the guinea pig anesthetized with pentobarbital and artificial ventilation was performed 25 to 29 days after the first sensitization. The overflow of the ventilation was measured by the Konzett-Roessler method while 0.2 mg/kg OA were administered intravenously. The test compound was dissolved in polyethylene glycol 400 and intravenously administered 10 minutes before administration of the antigens.

A further assay concerns rat neutrophils. Nature of the assay: Inhibitory action of super oxide anion release from rat neutrophils. The conditions noted are these: Neutrophil, stimulation with 0.3 μM calcium ionophore A23187, chemiluminescence, Lusigenin. It is filed as cell-based. The method, then:
Inhibitory effects on activity of rat neutrophils
The release of super oxide anions was measured so as to study the inhibitory effects of the compound of the present invention on inflammatory leukocytes, that is, neutrophils.
Blood sample was collected from Wister rats anesthetized with ether. It was superposed on a blood cell separation solution (Polymorphoprep 1.113, made by Naicomed Farm), and the neutrophils were separated by centrifugation. The neutrophils were resuspended in a Hank's balanced salt solution at a concentration of 0.5×10^4 cells/ml 0.1 mM of Lusigenin and the test substance dissolved in DMSO were added to 2 ml of the cell-suspension. The chemiluminescence generated by stimulation of 0.3 μM calcium ionophore A23187 was measured by a chemiluminescence reader so as to evaluate the release of super oxide anions.

The structures appear in SMILES notation.

As usually defined, the IC50 is the midpoint of a concentration-inhibition curve. As usually defined, the ED50 is the dose at which the effect has come halfway, by size or by number of responders.

In the assay with Type IV PDE, `COc1ccc(C2CNC(=O)CO2)cc1OCC1CC1` (stereo not shown) [Compound No. 8, 2-(3-cyclopropylmethoxy-4-methoxyphenyl)morpholin-5-one] displayed an IC50 of 2.5 µM. Besides, the ED50 in assay [1] turned out to be 4.31 mg/kg.

As for `COc1ccc(C2CNC(=O)CO2)cc1OCC1CCCC1` (stereo not shown) [Compound No. 36, 2-(3-cyclopentylmethoxy-4-methoxyphenyl)morpholin-5-one], the IC50 with Type IV PDE came out at 6.9 µM. Moreover, in assay [1], the median effective dose (ED50) is 1 mg/kg.

As to `COc1ccc(C2CNC(=O)CO2)cc1OC` (stereo not shown) [Compound No. 1, 2-(3,4-dimethoxyphenyl)morpholin-5-one], the half-inhibitory concentration (IC50) in the assay on Type IV PDE was determined as 37 µM; in the assay with rat neutrophils, 29 µM.

Take `COc1ccc(C2(C)CNC(=O)CO2)cc1OC` (stereo not shown) [Compound No. 9, 2-(3,4-dimethoxyphenyl)-2-methylmorpholin-5-one]: the concentration for half-maximal inhibition (IC50) was 16 µM in the assay with Type IV PDE and 1.6 µM in the assay with rat neutrophils.

The compound `COc1ccc(C2(C)CNC(=O)CO2)cc1OC1Cc2ccccc2C1` (stereo not shown) [Compound No. 27, 2-[3-(2-indanyloxy)-4-methoxyphenyl]-2-methylmorpholin-5-one] displayed a 50% inhibitory concentration (IC50) with Type IV PDE of 0.13 µM. For the same compound, the median effective dose (ED50) in assay [1] is 7.99 mg/kg.

Take `COc1ccc(C2CNC(=O)CO2)cc1OC1CCCC1` (stereo not shown) [Compound No. 2, 2-(3-cyclopentyloxy-4-methoxyphenyl)morpholin-5-one]: the IC50 turned out to be 1.5 µM in the assay on Type IV PDE and 5.8 µM in the assay with rat neutrophils. Also, the median effective dose (ED50) in assay [1] amounted to 0.48 mg/kg.

`COc1ccc(C2CNC(=O)CO2)cc1OCC1(C)CC1` (stereo not shown) [Compound No. 35, 2-[3-[(1-methylcyclopropyl)methoxy]-4-methoxyphenyl]morpholin-5-one] came in with an IC50 with Type IV PDE of 1.3 µM. Also, in assay [1], the ED50 was 6.22 mg/kg.

Take `COc1ccc(C2CNC(=O)CO2)cc1OCC1CCC1` (stereo not shown) [Compound No. 38, 2-(3-cyclobutylmethoxy-4-methoxyphenyl)morpholin-5-one]: 4.6 µM corresponded to half-maximal inhibition in the assay with Type IV PDE (IC50). In addition, in assay [1], the 50% effective dose (ED50) turned out to be 7.83 mg/kg.

Take `COc1ccc(C2CN(Cc3ccc(Br)cc3)C(=O)CO2)cc1OC1CCCC1` (stereo not shown) [Compound No. 13, 4-(4-bromobenzyl)-2-(3-cyclopentyloxy-4-methoxyphenyl)morpholin-5-one]: the half-inhibitory concentration (IC50) amounted to 1.8 µM with Type IV PDE and 1.4 µM in the assay on rat neutrophils.

`CCCCOc1cc(C2CNC(=O)CO2)ccc1OC` (stereo not shown) [Compound No. 5, 2-(3-butoxy-4-methoxyphenyl)morpholin-5-one]: it took 12 µM to reach half-maximal inhibition in the assay on Type IV PDE (IC50). Moreover, in assay [1], the ED50 worked out at 3.6 mg/kg.

`COc1ccc(C2CN(C)C(=O)CO2)cc1OC1CCCC1` (stereo not shown) [Compound No. 14, 2-(3-cyclopentyloxy-4-methoxyphenyl)-4-methylmorpholin-5-one] gave an IC50 with Type IV PDE of 0.31 µM. In assay [1], the ED50 turned out to be 2.1 mg/kg.

Regarding `COc1ccc(C2CNC(=O)CO2)cc1OCC(C)C` (stereo not shown) [Compound No. 39, 2-[3-(2-methylpropoxy)-4-methoxyphenyl]morpholin-5-one], the half-inhibitory concentration (IC50) with Type IV PDE amounted to 7.8 µM. In addition, the ED50 in assay [1] worked out at 8.04 mg/kg.

Values taken from US6265402A, “Use of 2-phenylmorpholin-5-one derivatives” (Nikken Chemicals Co., Ltd., priority 1996, dated 2001).
